Consider five molecules from patent US8153686B2 (Theravance, Inc., priority 2008, dated 2012).

Like-named read-outs stand apart in the source and are kept apart here.

Experiment [1] has as its target T1, human mu opioid receptor (Homo sapiens, UniProt P35372). Nature of the experiment: Human mu [35S]GTPγS nucleotide exchange assay (agonist mediated activation). In kind it is biochemical. As to conditions: read-out: intrinsic activity (IA). Background: Binding of GTPγS marks nucleotide exchange on a G protein.
Experiment [2] has as its target T1, human mu opioid receptor. The experiment is described as follows: Radioligand binding assay, human mu opioid receptor.
Experiment [3] deals with loperamide-induced delayed gastric emptying. The experiment is described as follows: Rat gastric emptying assay (reversal of loperamide-induced delayed gastric emptying). In kind it is in vivo. The following applies: administered orally, loperamide 1 mg/kg s.c., gastric emptying model. As to the method: Assay 3: Rat Model of In Vivo Efficacy In this assay the efficacy of test compounds was evaluated in a model of gastrointestinal transit, which evaluates peripheral activity. This study was approved by the Institutional Animal Care and Use Committee at […]. and conformed to the Guide for the Care and Use of Laboratory Animals published by the National Academy of Sciences (©1996). a. Rat Gastric Emptying Assay Test compounds were evaluated in the rat gastric emptying assay to determine their ability to reverse loperamide-induced delayed gastric emptying. Rats were fasted up overnight prior to administration of test compounds or vehicle by intravenous, subcutaneous, intramuscular or oral routes of administration at doses ranging from 0.001 to about 30 milligrams/kilogram (mg/kg). The administration of test compound was followed by subcutaneous administration of loperamide at a dose of 1 mg/kg or vehicle. Five minutes post loperamide or vehicle administration, a non-nutritive, non-absorbable charcoal meal was administered via oral gavage and animals were allowed free access to water for the sixty minute duration of the experiment. Animals were then euthanized via carbon dioxide asphyxiation followed by thoracotomy and the stomach was carefully excised. The stomach was ligated at the lower esophageal sphincter and the pyloric sphincter to prevent additional emptying during tissue removal. Gastric weight was then determined after removal of the ligatures. b. Data Analysis and Results Data was analyzed using the GraphPad Prism Software package (GraphPad Software, Inc., San Diego, Calif.). Percent reversal curves were constructed by non-linear regression analysis using the sigmoidal dose response (variable slope) model and best-fit ID50 values were calculated. Curve minima and maxima were fixed to loperamide control values (indicating 0% reversal) and vehicle controls (indicating 100% reversal), respectively. Results are expressed as ID50, the dose required for 50% reversal of the effects of loperamide, in milligrams per kilogram.

Where [4] appears, read: bound [35S]GTPγS relative to DAMGO (IA=100), CHO-K1 membranes expressing human mu opioid receptor.
[5] abbreviates: displacement of [3H]-Diprenorphine 0.5 nM, CHO-K1 cell membranes, read-out: pKi at the human mu opioid receptor (converted).

T1 sequence (P35372 whole entry): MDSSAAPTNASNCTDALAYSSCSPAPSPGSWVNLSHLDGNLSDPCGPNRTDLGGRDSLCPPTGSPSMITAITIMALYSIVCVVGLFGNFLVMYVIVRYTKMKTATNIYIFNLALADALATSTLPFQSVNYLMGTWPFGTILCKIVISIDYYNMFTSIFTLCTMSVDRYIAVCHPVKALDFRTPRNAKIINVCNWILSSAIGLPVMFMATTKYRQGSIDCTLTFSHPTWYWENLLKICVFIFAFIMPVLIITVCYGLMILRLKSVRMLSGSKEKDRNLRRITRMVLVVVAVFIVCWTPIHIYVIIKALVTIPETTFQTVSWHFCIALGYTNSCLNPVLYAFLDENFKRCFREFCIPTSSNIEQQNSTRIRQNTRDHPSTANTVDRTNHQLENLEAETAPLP

Consider `COC1Cc2ccc(C(N)=O)cc2C(C)(C)C1NC[C@H](N)Cc1ccccc1` (single isomer, unassigned) [Example 8], for which the Emax in experiment [1] is -7%. The same molecule showed a Ki in experiment [2] of 1.58 nM.

Regarding `CO[C@@H]1Cc2ccc(C(N)=O)cc2C(C)(C)[C@H]1NCCCNC(=O)C1CCCCC1` (relative stereo) [Example 1, trans-7-[3-(Cyclohexanecarbonyl-amino)-propylamino]-6-methoxy-8,8-dimethyl-5,6,7,8-tetrahydro-naphthalene-2-carboxylic acid amide], the Emax in experiment [1] (setting [4]) turned out to be 10%. Also, the Ki in experiment [2] (setting [5]) is 0.158 nM. Besides, the “ID50, dose required for 50% reversal of the effects of loperamide” value (shortened to “ID50, dose required for 50% reversal”) in experiment [3] came to 0.5 mg/kg.

Consider `CO[C@H]1Cc2ccc(C(N)=O)cc2C(C)(C)[C@@H]1NCCCNC(=O)CC(C)(C)C` [Example 12, (6S,7S)-7-[3-(3,3-Dimethyl-butyrylamino)-propylamino]-6-methoxy-8,8-dimethyl-5,6,7,8-tetrahydro-naphthalene-2-carboxylic acid amide], for which the Ki in experiment [2] (setting [5]) is 0.0631 nM. In addition, the “ID50, dose required for 50% reversal” value in experiment [3] was 0.11 mg/kg.

As to `CO[C@@H]1Cc2ccc(C(N)=O)cc2C(C)(C)[C@H]1NCCCNC(=O)c1ccccc1` (relative stereo) [Example 16, trans-7-(3-Benzoylamino-propylamino)-6-methoxy-8,8-dimethyl-5,6,7,8-tetrahydro-naphthalene-2-carboxylic acid amide], the Emax in experiment [1] (setting [4]) was -2%. Also, the Ki in experiment [2] (setting [5]) is 0.126 nM. Also, the “ID50, dose required for 50% reversal” value in experiment [3] turned out to be 0.63 mg/kg.

As to `CO[C@@H]1Cc2ccc(C(N)=O)cc2C(C)(C)[C@H]1NCCCNC(=O)CC(C)(C)C` (relative stereo) [Example 11, trans-7-[3-(3,3-Dimethyl-butyrylamino)-propylamino]-6-methoxy-8,8-dimethyl-5,6,7,8-tetrahydro-naphthalene-2-carboxylic acid amide], the Emax in experiment [1] (setting [4]) was 1%. In experiment [2] (setting [5]), the Ki is 0.2 nM. Besides, the “ID50, dose required for 50% reversal” value in experiment [3] was 0.4 mg/kg.
